Results reported in patent publication US20260049084A1, “ENPP1 MODULATORS AND PRODUCTS AND USES THEREOF” (Gossamer Bio Services, Inc., priority 2022, published 2026).

Columns and labels:
[1] = target: Recombinant human ENPP1 protein (Homo sapiens (Human), UniProt P22413); assay: ENPP1 cGAMP Biochemical Assay; details: 0.5 nM ENPP1, 1000 nM 2′3′-cGAMP substrate, TR-FRET
Procedure: ENPP1 cGAMP Biochemical Assay
Compounds were added to 384 well Proxiplate (PerkinElmer, Waltham MA) at 100 nl/well from DMSO stocks using Echo (Labcyte, San Jose CA). Recombinant human ENPP1 protein (R&D Systems, Minneapolis MN) was prepared in assay buffer (50 mM Tris pH7.5, 1 mM TCEP pH7.0, 2 mM MgCl2 and 0.005% Tween20) and added at 10 μl/well. The plate was sealed, centrifuged at 1000 rpm for 1 minute and incubated at room temperature for 30 minutes before 5 μl substrate 2′3′-cGAMP (R&D Systems, Minneapolis MN) in assay buffer was added to each well to a final concentration of 0.5 nM ENPP1 and 1000 nM 2′3′-cGAMP. The plate was sealed and centrifuged at 1000 rpm for 1 minute again. After incubation at 25° C. for 60 minutes, Terbium labelled AMP/GMP antibody and AMP/GMP HiLyte647 Tracer (BellBrook Labs, Fitchburg WI) in detection buffer (50 mM Tris pH7.5, 20 mM EDTA and 0.1% Prionex) were added to the reaction mixture to a final concentration of 2 nM (5 μl/well). The assay plate was incubated at room temperature for 120 minutes. TR-FRET signal was detected using Envision (PerkinElmer, Waltham MA).

[2] = target: Recombinant human ENPP3 protein (Homo sapiens (Human), UniProt O14638); assay: ENPP3 cGAMP Biochemical Assay; details: 70.5 nM ENPP3, 120 μM 2′3′-cGAMP substrate, TR-FRET
Procedure: ENPP3 cGAMP Biochemical Assay
Compounds were added to 384 well Proxiplate (PerkinElmer, Waltham MA) at 100 nl/well from DMSO stocks using Echo (Labcyte, San Jose CA). Recombinant human ENPP3 protein (Acro Biosystems, Newwark DE) was prepared in assay buffer (50 mM Tris pH7.5, 1 mM TCEP pH7.0, 2 mM MgCl2, 2 mM CaCl2), 2 mM ZnCl2 and 0.005% Tween20) and added at 2 μl/well. The plate was sealed, centrifuged at 1000 rpm for 1 minute and incubated at room temperature for 30 minutes before 2 μl substrate 2′3′-cGAMP (R&D Systems, Minneapolis MN) in assay buffer was added to each well to a final concentration of 70.5 nM ENPP3 and 120 μM 2′3′-cGAMP. The plate was sealed and centrifuged at 1000 rpm for 1 minute again. After incubation at 25° C. for 60 minutes, Terbium labelled AMP/GMP antibody and AMP/GMP HiLyte647 Tracer (BellBrook Labs, Fitchburg WI) in detection buffer (50 mM Tris pH7.5, 20 mM EDTA and 0.1% Prionex) were added to the reaction mixture to a final concentration of 475 nM and 3 nM respectively. The assay plate was incubated at room temperature for 120 minutes. TR-FRET signal was detected using Envision (PerkinElmer, Waltham MA).

Sequence of Recombinant human ENPP1 protein (P22413 whole entry): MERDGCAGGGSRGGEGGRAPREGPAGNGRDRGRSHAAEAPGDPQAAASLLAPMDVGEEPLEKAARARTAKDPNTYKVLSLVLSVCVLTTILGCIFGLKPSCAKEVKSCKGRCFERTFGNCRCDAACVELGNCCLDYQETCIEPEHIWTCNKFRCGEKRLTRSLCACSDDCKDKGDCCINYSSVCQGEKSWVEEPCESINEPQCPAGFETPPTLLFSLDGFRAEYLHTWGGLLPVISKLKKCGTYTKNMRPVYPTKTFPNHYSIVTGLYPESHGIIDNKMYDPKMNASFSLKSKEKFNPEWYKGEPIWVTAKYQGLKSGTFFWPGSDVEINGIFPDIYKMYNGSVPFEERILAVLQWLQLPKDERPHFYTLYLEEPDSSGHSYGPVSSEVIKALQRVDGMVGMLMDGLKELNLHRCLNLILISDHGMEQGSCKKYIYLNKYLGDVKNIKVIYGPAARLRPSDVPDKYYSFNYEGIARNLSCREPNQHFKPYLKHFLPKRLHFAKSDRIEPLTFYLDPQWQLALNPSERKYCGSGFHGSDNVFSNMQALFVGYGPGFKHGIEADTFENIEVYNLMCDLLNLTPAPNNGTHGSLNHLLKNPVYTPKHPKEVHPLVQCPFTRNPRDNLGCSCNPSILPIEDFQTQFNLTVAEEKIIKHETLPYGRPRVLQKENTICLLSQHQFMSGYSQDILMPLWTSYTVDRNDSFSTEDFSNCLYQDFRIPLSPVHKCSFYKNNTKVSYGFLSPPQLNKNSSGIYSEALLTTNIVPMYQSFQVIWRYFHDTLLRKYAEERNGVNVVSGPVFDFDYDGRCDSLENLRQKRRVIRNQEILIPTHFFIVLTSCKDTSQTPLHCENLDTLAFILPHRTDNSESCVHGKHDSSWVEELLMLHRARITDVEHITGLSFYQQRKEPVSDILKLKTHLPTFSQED
Sequence of Recombinant human ENPP3 protein (O14638 whole entry): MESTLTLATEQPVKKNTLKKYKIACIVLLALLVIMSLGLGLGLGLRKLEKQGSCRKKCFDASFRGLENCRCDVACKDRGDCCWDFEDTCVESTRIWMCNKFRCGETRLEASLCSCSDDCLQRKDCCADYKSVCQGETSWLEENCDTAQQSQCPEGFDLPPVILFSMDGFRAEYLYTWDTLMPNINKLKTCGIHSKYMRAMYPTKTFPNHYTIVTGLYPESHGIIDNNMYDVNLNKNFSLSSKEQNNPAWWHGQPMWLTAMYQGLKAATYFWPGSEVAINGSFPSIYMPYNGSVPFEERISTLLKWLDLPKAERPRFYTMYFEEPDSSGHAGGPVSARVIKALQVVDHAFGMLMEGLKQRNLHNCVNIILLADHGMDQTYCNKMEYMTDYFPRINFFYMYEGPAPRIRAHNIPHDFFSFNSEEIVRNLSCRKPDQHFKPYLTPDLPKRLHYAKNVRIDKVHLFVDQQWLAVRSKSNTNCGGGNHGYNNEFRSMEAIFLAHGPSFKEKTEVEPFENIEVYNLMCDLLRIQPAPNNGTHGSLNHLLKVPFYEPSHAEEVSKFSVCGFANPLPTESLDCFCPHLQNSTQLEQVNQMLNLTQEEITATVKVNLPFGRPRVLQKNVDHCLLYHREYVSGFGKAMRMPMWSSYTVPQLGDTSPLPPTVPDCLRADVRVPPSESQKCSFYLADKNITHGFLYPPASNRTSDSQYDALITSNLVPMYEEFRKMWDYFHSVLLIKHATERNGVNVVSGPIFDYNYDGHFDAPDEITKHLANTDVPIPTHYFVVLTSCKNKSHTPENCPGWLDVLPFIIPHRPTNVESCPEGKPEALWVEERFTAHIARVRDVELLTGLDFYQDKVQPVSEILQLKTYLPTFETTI

SMILES: CCn1nc(Cl)c2c(NCc3ccc([S@](=N)(=O)CCOC)cc3)ccnc21 [Compound 9N, (R)-(4-(((3-chloro-1-ethyl-1H-pyrazolo [3,4-b]pyridine-4-yl)amino)methyl)phenyl)(imino)(2-methoxyethyl)-λ^6-sulfanone]
- IC50 [1]: < 10 nM
- IC50 [2]: ≥ 1000 nM

SMILES: C#CCn1nc(Cl)c2c(NCc3ccc(S(=N)(=O)NC)cc3)ccnc21 (stereo in doubt) [Compound 10C, (S)-4-(((3-chloro-1-(prop-2-yn-1-yl)-1H-pyrazolo[3,4-b]pyridin-4-yl)amino)methyl)-N-methylbenzenesulfonimidamide]
- IC50 [1]: < 10 nM
- IC50 [2]: 10 to 100 nM

SMILES: C#CCn1nc(Cl)c2c(NCc3ccc(S(=N)(N)=O)cc3)ccnc21 (stereo not drawn) [Compound 11A, 4-(((3-chloro-1-(prop-2-yn-1-yl)-1H-pyrazolo[3,4-b]pyridin-4-yl)amino)methyl)benzenesulfonimidamide]
- IC50 [1]: < 10 nM
- IC50 [2]: 10 to 100 nM

SMILES: C#CCn1nc(Cl)c2c(NCC3CCN([S@](C)(=N)=O)CC3)ccnc21 [Compound 13B, (S)-3-chloro-N-((1-(S-methylsulfonimidoyl)piperidin-4-yl)methyl)-1-(prop-2-yn-1-yl)-1H-pyrazolo[3,4-b]pyridin-4-amine]
- IC50 [1]: < 10 nM
- IC50 [2]: 10 to 100 nM

SMILES: CCn1ncc2c(NCc3ccc([S@@](N)(=O)=NC)cc3)ccnc21 [Compound 3E, (S)-4-(((1-ethyl-1H-pyrazolo[3,4-b]pyridin-4-yl)amino)methyl)-N′-methylbenzenesulfonimidamide]
- IC50 [1]: < 10 nM
- IC50 [2]: ≥ 1000 nM

SMILES: CCn1ncc2c(NCc3ccc(S(=N)(N)=O)cc3)cc(-c3ncc[nH]3)nc21 (stereo not drawn) [Compound 2C, 4-(((1-ethyl-6-(1H-imidazol-2-yl)-1H-pyrazolo [3,4-b]pyridin-4-yl)amino)methyl)benzene sulfonimidamide]
- IC50 [1]: 100 to 1000 nM
- IC50 [2]: 100 to 1000 nM

SMILES: C#CCn1nc(Cl)c2c(N(C)Cc3ccc(S(N)(=O)=NC)cc3)ccnc21 (stereo not drawn) [Compound 3C, 4-(((3-chloro-1-(prop-2-yn-1-yl)-1H-pyrazolo[3,4-b]pyridin-4-yl)(methyl)amino)methyl)-N′-methylbenzenesulfonimidamide]
- IC50 [1]: < 10 nM
- IC50 [2]: 100 to 1000 nM

SMILES: CCn1nc(Cl)c2c(Nc3ccc(S(=N)(N)=O)cc3)ccnc21 (stereo not drawn) [Compound 5C, 4-((3-chloro-1-ethyl-1H-pyrazolo[3,4-b]pyridin-4-yl)amino)benzenesulfonimidamide]
- IC50 [1]: 10 to 100 nM
- IC50 [2]: 100 to 1000 nM

SMILES: CCn1ncc2c(NCc3ccc(S(N)(=O)=NC#N)cc3)ccnc21 (stereo not drawn) [Compound 3D, N′-cyano-4-(((1-ethyl-1H-pyrazolo[3,4-b]pyridin-4-yl)amino)methyl)benzenesulfonimidamide]
- IC50 [1]: < 10 nM
- IC50 [2]: 100 to 1000 nM

SMILES: C#CCn1nc(Cl)c2c(NCC3CCN(S(C)(=N)=O)CC3)ccnc21 (stereo not drawn) [Compound 13A, 3-chloro-N-((1-(S-methylsulfonimidoyl)piperidin-4-yl)methyl)-1-(prop-2-yn-1-yl)-1H-pyrazolo[3,4-b]pyridin-4-amine]
- IC50 [1]: < 10 nM
- IC50 [2]: 10 to 100 nM

SMILES: CCn1nc(Cl)c2c(Nc3ccc(S(N)(=O)=NC(C)C)cc3)ccnc21 (stereo not drawn) [Compound 5H, 4-((3-chloro-1-ethyl-1H-pyrazolo[3,4-b]pyridin-4-yl)amino)-N′-isopropylbenzenesulfonimidamide]
- IC50 [1]: < 10 nM
- IC50 [2]: 100 to 1000 nM

SMILES: CCn1nc(Cl)c2c(Nc3ccc(S(N)(=O)=NC#N)cc3)ccnc21 (stereo not drawn) [Compound 5G, 4-((3-chloro-1-ethyl-1H-pyrazolo[3,4-b]pyridin-4-yl)amino)-N′-cyanobenzenesulfonimidamide]
- IC50 [1]: 10 to 100 nM
- IC50 [2]: ≥ 1000 nM

SMILES: CCn1nc(Cl)c2c(NCc3ccc(S(N)(=O)=NCC(F)(F)F)cc3)ccnc21 (stereo not drawn) [Compound 12E, 4-(((3-chloro-1-ethyl-1H-pyrazolo[3,4-b]pyridin-4-yl)amino)methyl)-N′-(2,2,2-trifluoroethyl) benzenesulfonimidamide]
- IC50 [1]: 10 to 100 nM
- IC50 [2]: ≥ 1000 nM

SMILES: CCn1nc(Cl)c2c(NCC3CCN(S(=N)(=O)CCC(=O)O)CC3)ccnc21 (stereo not drawn) [Compound 14F, 3-(4-(((3-chloro-1-ethyl-1H-pyrazolo[3,4-b]pyridin-4-yl)amino)methyl)piperidine-1-sulfonimidoyl)propanoic acid]
- IC50 [1]: < 10 nM
- IC50 [2]: 100 to 1000 nM

SMILES: C#CCn1nc(Cl)c2c(N(C)Cc3ccc([S@@](C)(=N)=O)cc3)ccnc21 [Compound 9C, (S)-(4-(((3-chloro-1-(prop-2-yn-1-yl)-1H-pyrazolo[3,4-b]pyridin-4-yl)(methyl)amino)methyl)phenyl)(imino)(methyl)-λ^6-sulfanone]
- IC50 [1]: < 10 nM
- IC50 [2]: ≥ 1000 nM

SMILES: C#CCn1nc(Cl)c2c(NCc3ccc(S(C)(=O)=NC)cc3)ccnc21 (stereo not drawn) [Compound 10A, (4-(((3-chloro-1-(prop-2-yn-1-yl)-1H-pyrazolo[3,4-b]pyridin-4-yl)amino)methyl)phenyl)(methyl)(methylimino)-λ6-sulfanone]
- IC50 [1]: 100 to 1000 nM
- IC50 [2]: ≥ 1000 nM

SMILES: C#CCn1nc(Cl)c2c(NCc3ccc([S@@](C)(=N)=O)cc3)ccnc21 [Compound 6B, (S)-(4-(((3-chloro-1-(prop-2-yn-1-yl)-1H-pyrazolo[3,4-b]pyridin-4-yl)amino)methyl)phenyl)(imino)(methyl)-λ^6-sulfanone]
- IC50 [1]: < 10 nM
- IC50 [2]: 10 to 100 nM

SMILES: CCn1ncc2c(OCc3ccc(S(N)(=O)=NC)cc3)ccnc21 (stereo not drawn) [Compound 7A, 4-(((1-ethyl-1H-pyrazolo[3,4-b]pyridin-4-yl)oxy)methyl)-N′-methylbenzenesulfonimidamide]
- IC50 [1]: 100 to 1000 nM
- IC50 [2]: ≥ 1000 nM

SMILES: CCn1nc(Cl)c2c(NCc3ccc(S(=N)(=O)CC4CC4)cc3)ccnc21 (stereo not drawn) [Compound 9J, (4-(((3-chloro-1-ethyl-1H-pyrazolo[3,4-b]pyridin-4-yl)amino)methyl)phenyl) (cyclopropylmethyl)(imino)-λ^6-sulfanone]
- IC50 [1]: < 10 nM
- IC50 [2]: 100 to 1000 nM

SMILES: C#CCn1nc(Cl)c2c(NCC3CCN(S(=N)(N)=O)CC3)ccnc21 (stereo not drawn) [Compound 15I, 4-(((3-chloro-1-(prop-2-yn-1-yl)-1H-pyrazolo[3,4-b]pyridin-4-yl)amino)methyl)piperidine-1-sulfonimidamide]
- IC50 [1]: < 10 nM
- IC50 [2]: 100 to 1000 nM

SMILES: CCN=S(N)(=O)c1ccc(Nc2ccnc3c2c(Cl)nn3CC)cc1 (stereo not drawn) [Compound 5E, 4-((3-chloro-1-ethyl-1H-pyrazolo[3,4-b]pyridin-4-yl)amino)-N′-ethylbenzenesulfonimidamide]
- IC50 [1]: < 10 nM
- IC50 [2]: 100 to 1000 nM

SMILES: CCn1ncc2c(NCC3CCN([S@@](C)(=N)=O)CC3)ccnc21 [Compound 14G, (R)-1-ethyl-N-((1-(S-methylsulfonimidoyl)piperidin-4-yl)methyl)-1H-pyrazolo[3,4-b]pyridine-4-amine]
- IC50 [2]: ≥ 1000 nM

SMILES: CCn1nc(Cl)c2c(NCc3ccc([S@@](C)(=N)=O)cc3)ccnc21 [Compound 9M, (S)-(4-(((3-chloro-1-ethyl-1H-pyrazolo[3,4-b]pyridin-4-yl)amino)methyl)phenyl)(imino) (methyl)-λ^6-sulfanone]
- IC50 [1]: 10 to 100 nM
- IC50 [2]: ≥ 1000 nM

SMILES: CCn1nc(Cl)c2c(NCC3CCN([S@@](C)(=N)=O)CC3)ccnc21 [Compound 13G, (R)-3-chloro-1-ethyl-N-((1-(S-methylsulfonimidoyl)piperidin-4-yl)methyl)-1H-pyrazolo[3,4-b]pyridin-4-amine]
- IC50 [1]: 10 to 100 nM
- IC50 [2]: ≥ 1000 nM

SMILES: CN[S@@](=N)(=O)c1ccc(CNc2ccnc3c2c(Cl)nn3CC#N)cc1 [Compound 10F, (R)-4-(((3-chloro-1-(cyanomethyl)-1H-pyrazolo[3,4-b]pyridin-4-yl)amino)methyl)-N-methylbenzenesulfonimidamide]
- IC50 [1]: 10 to 100 nM
- IC50 [2]: ≥ 1000 nM

SMILES: CCn1ncc2c(NCC3CCN([S@](C)(=N)=O)CC3)ccnc21 [Compound 14H, (S)-1-ethyl-N-((1-(S-methylsulfonimidoyl)piperidin-4-yl)methyl)-1H-pyrazolo[3,4-b]pyridin-4-amine]
- IC50 [2]: ≥ 1000 nM

SMILES: CN=[S@](N)(=O)N1CCC(CNc2ccnc3c2c(Cl)nn3CC#N)CC1 [Compound 15G, (S)-4-(((3-chloro-1-(cyanomethyl)-1H-pyrazolo[3,4-b]pyridin-4-yl)amino)methyl)-N′-methylpiperidine-1-sulfonimidamide]
- IC50 [2]: 100 to 1000 nM
